# Test results from patent US8859546B2, “Picolinamide inhibitors of kinases” (AbbVie Inc., priority 2011, dated 2014).
# Molecular target: T1, ALK (Homo sapiens, UniProt Q9UM73)
# T1 construct: purchased Millipore
# Assay: ALK kinase assay (HTRF), apparent Ki
# Type: biochemical
# Conditions: apparent Ki from IC50 by Cheng-Prusoff; ALK (Millipore), 50 μM ATP; read-out: HTRF_ALK Human-Ki
# Procedure: The following procedure is used to determine ALK Activity.
# ALK kinase assays were conducted with the indicated final concentrations unless otherwise specified. In 384 well black plates (Axygen), 8 μl of compound (2% DMSO) was incubated with 8 μl Lck-peptide substrate (0.5 μM, biotin-Ahx-GAEEEIYAAFFA-COOH) and 8 μl of a mixture of ALK (3 nM, Millipore) and ATP (50 μM) in reaction buffer (50 mM Hepes, pH 7.4; 10 mM MgCl2; 2 mM MnCl2; 0.1 mM sodium orthovanadate; 0.01% BSA and 1 mM DTT (added fresh before assay) for 1 h at room temperature. Reactions were then quenched by the addition of 30 μl quench solution (streptavidin-allophycocyanin and Europium-cryptate PT66 monoclonal antibody in 40 mM Hepes, pH 7.4; 480 mM KF; 66 mM EDTA; 0.01% Tween-20; and 0.1% BSA) at room temperature. Plates were read 1 h after quenching on an Envision Multilaber Reader and IC50 values were calculated using a sigmoidal fit of the concentration/inhibition response curves. These values were converted to apparent Ki values using the Cheng-Prusoff relationship.
# Alternatively, 4 nM ALK (Millipore) and 50 μM ATP were pre-incubated for 30 min at room temperate in 384 well plates (Corning 3676) in 2.5× reaction buffer (125 nM SEB from Cisbio Bioassays, 12.5 mM MgCl2, 5 mM MnCl2, and 2.5 mM DTT). Reactions were initiated by the addition of 4 μl ALK-ATP mixture to 2 μl compounds (2% DMSO) and 4 μl TK-substrate biotin (Cisbio Bioassays). After incubation for 1 h at room temperature, reactions were quenched in 10 μl stop buffer (Cisbio detection buffer containing Streptavididn-XL665 and Eu-Cryptate PT66 monoclonal antibody). Plates were read 1 h after quenching on an Envision Multilaber Reader and IC50 values were calculated using a sigmoidal fit of the concentration/inhibition response curves. These values were converted to apparent Ki values using the Cheng-Prusoff relationship. Results are shown in Table 1 A correlates to an Ki=<100 nM, B correlates to an Ki between 100 nM and 1 μM, C correlates to an Ki=>1 μM.
# T1 sequence (Q9UM73 19-1620): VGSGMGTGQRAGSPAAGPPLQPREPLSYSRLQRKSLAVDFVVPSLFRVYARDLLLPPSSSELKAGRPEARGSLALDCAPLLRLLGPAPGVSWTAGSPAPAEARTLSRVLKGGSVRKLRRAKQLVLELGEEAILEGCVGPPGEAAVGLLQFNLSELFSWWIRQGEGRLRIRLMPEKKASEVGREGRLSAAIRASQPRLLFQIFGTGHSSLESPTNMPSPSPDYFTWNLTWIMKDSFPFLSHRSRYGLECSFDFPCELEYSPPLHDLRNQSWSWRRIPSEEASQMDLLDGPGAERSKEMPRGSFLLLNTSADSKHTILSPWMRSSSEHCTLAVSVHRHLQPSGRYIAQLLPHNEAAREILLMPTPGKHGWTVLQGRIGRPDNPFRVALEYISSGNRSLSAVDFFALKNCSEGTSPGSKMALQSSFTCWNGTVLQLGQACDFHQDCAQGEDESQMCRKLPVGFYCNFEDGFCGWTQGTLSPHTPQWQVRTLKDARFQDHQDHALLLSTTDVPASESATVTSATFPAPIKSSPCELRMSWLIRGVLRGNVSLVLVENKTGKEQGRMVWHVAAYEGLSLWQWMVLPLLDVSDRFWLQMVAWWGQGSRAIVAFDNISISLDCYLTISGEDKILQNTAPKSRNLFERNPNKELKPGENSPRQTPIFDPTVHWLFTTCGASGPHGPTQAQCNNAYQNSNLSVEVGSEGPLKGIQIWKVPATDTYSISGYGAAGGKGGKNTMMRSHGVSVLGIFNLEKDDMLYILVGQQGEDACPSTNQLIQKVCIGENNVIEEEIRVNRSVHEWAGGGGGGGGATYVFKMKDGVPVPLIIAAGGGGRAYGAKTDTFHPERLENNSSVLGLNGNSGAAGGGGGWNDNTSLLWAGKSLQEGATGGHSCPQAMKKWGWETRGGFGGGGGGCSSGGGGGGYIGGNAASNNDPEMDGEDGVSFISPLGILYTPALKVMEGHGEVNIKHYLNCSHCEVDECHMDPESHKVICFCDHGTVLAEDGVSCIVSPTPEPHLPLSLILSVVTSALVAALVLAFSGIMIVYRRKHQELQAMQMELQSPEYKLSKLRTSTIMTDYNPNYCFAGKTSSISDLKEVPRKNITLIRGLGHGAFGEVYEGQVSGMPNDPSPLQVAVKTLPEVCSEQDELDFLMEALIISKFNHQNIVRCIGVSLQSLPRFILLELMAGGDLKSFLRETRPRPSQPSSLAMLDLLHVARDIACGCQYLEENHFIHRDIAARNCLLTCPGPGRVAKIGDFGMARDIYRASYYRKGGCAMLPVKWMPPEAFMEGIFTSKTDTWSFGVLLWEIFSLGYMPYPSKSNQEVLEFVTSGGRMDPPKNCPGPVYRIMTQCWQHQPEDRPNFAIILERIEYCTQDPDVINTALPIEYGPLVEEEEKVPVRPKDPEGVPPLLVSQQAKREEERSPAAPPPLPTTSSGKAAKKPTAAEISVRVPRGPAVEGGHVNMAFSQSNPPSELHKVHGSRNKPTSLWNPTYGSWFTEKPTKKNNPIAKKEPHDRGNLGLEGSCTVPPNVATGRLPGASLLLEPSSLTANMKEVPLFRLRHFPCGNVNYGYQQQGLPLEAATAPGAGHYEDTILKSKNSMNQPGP
row,Structure (SMILES),Ki [nM]
1,"CN1CCN(c2ccc(Nc3cc(-c4cccc(NS(=O)(=O)C5CC5)c4)cnc3C(N)=O)cc2)CC1 [Example 66, 5-{3-[(cyclopropylsulfonyl)amino]phenyl}-3-{[4-(4-methylpiperazin-1-yl)phenyl]amino}pyridine-2-carboxamide]",100 to 1000
2,"Cc1oncc1S(=O)(=O)Nc1cccc(-c2cnc(C(N)=O)c(Nc3ccc(N4CCN(C)CC4)cc3)c2)c1 [Example 67, 5-(3-{[(5-methyl-1,2-oxazol-4-yl)sulfonyl]amino}phenyl)-3-{[4-(4-methylpiperazin-1-yl)phenyl]amino}pyridine-2-carboxamide]",100 to 1000
3,"CN1CCN(c2ccc(Nc3cc(-c4cccc(NS(=O)(=O)c5cccs5)c4)cnc3C(N)=O)cc2)CC1 [Example 68, 3-{[4-(4-methylpiperazin-1-yl)phenyl]amino}-5-{3-[(2-thienylsulfonyl)amino]phenyl}pyridine-2-carboxamide]",< 100
4,"CN1CCN(c2ccc(Nc3cc(-c4cccc(NS(=O)(=O)c5ccn(C)n5)c4)cnc3C(N)=O)cc2)CC1 [Example 69, 3-{[4-(4-methylpiperazin-1-yl)phenyl]amino}-5-(3-{[(1-methyl-1H-pyrazol-3-yl)sulfonyl]amino}phenyl)pyridine-2-carboxamide]",100 to 1000
5,"CN1CCN(c2ccc(Nc3cc(Nc4ccccc4)cnc3C(N)=O)cc2)CC1 [Example 70, 5-anilino-3-{[4-(4-methylpiperazin-1-yl)phenyl]amino}pyridine-2-carboxamide]",100 to 1000
6,"CN1CCN(c2ccc(Nc3cc(Nc4ccccc4S(=O)(=O)N(C)C)cnc3C(N)=O)cc2)CC1 [Example 71, 5-{[2-(dimethylsulfamoyl)phenyl]amino}-3-{[4-(4-methylpiperazin-1-yl)phenyl]amino}pyridine-2-carboxamide]",100 to 1000
